Bounds are passed on as bounds.

Data set [1] has as its target T1, Sterol O-acyltransferase 2 (Mus musculus) (UniProt O88908).
T1 sequence (whole entry): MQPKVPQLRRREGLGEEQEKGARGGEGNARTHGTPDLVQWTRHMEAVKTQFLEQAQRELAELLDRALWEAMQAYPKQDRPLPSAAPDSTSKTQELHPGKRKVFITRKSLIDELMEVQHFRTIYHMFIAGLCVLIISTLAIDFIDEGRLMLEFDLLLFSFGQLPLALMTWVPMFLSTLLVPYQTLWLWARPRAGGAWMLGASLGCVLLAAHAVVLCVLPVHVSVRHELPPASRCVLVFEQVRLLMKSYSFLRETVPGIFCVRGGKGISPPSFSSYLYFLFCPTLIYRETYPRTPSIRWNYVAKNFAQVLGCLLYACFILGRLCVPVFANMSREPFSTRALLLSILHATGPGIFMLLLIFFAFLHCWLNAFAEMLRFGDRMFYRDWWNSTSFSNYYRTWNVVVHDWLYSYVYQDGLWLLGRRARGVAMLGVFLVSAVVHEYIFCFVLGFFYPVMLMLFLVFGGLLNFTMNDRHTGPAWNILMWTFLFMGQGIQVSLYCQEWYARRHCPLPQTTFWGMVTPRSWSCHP
In words: Ratio of compound IC50 to PRD 043 IC50 for ACAT2 in mouse hepatic microsomal membranes. Format: cell membranes. The conditions noted are these: Liver, Microsomal Membrane.

Data set [2] can be described thus: Half life in Sprague-Dawley rat liver microsomes at 6 ug/ml by HPLC method. Format: ADME. In general terms: Liver microsomes are vesicles of endoplasmic reticulum, rich in cytochrome P450 enzymes.

Regarding `COc1ccc(C(OC)O[C@H]2C[C@H]3[C@]4(C)CO[C@@H](c5ccccc5)O[C@H]4CC[C@]3(C)[C@H]3[C@@H](O)c4c(cc(-c5cccnc5)oc4=O)O[C@]23C)cc1` (some centres undefined), in data set [1], the Ratio IC50 is below 20. In addition, the half-life at 6 ug/ml in data set [2] was above 9 h.

For the molecule `C[C@@]12CO[C@@H](c3ccccc3F)O[C@H]1CC[C@@]1(C)[C@H]2C[C@H](OC(=O)c2ccc(C#N)cc2)[C@@]2(C)Oc3cc(-c4cccnc4)oc(=O)c3[C@H](O)[C@H]12`, the Ratio IC50 in data set [1] is below 20. This molecule displayed a half-life at 6 ug/ml in data set [2] above 9 h.

In the case of `CCCCCC(=O)OC[C@@]1(C)[C@@H]2C[C@H](OC(=O)c3ccc(C#N)cc3)[C@@]3(C)Oc4cc(-c5cccnc5)oc(=O)c4[C@H](O)[C@@H]3[C@@]2(C)CC[C@@H]1OC(=O)CCCCC`, in data set [1], the Ratio IC50 was below 20. The half-life at 6 ug/ml in data set [2] is above 9 h.

With `C[C@@]12CO[C@@H](c3ccccc3)O[C@H]1CC[C@@]1(C)[C@H]2C[C@H](OC(=O)C2CCCCC2)[C@@]2(C)Oc3cc(-c4cccnc4)oc(=O)c3[C@H](O)[C@H]12`, the Ratio IC50 in data set [1] was below 20. This molecule also had a half-life at 6 ug/ml in data set [2] above 9 h.

Consider `C[C@]1(COC(=O)c2ccccc2)[C@@H]2C[C@H](OC(=O)c3ccc(C#N)cc3)[C@@]3(C)Oc4cc(-c5cccnc5)oc(=O)c4[C@H](O)[C@@H]3[C@@]2(C)CC[C@@H]1OC(=O)c1ccccc1`, for which the Ratio IC50 in data set [1] is below 20. Moreover, in data set [2], the half-life at 6 ug/ml is above 9 h.

With `CC(=O)O[C@H]1CC[C@@]2(C)[C@@H](C[C@H](OC(C)=O)[C@@]3(C)Oc4cc(-c5cccnc5)oc(=O)c4[C@H](O)[C@H]23)[C@]1(C)COC(=O)c1ccccc1`, the Ratio IC50 in data set [1] was below 20. This molecule also yielded a half-life at 6 ug/ml in data set [2] above 9 h.

With `Cc1ccc([C@@H]2OC[C@@]3(C)[C@@H]4C[C@H](OC(=O)c5ccc(C#N)cc5)[C@@]5(C)Oc6cc(-c7cccnc7)oc(=O)c6[C@H](O)[C@@H]5[C@@]4(C)CC[C@@H]3O2)c(C)c1`, the Ratio IC50 in data set [1] is below 20. The half-life at 6 ug/ml in data set [2] was above 9 h.

`COC(=O)[C@@]1(C)[C@@H](OC(C)=O)CC[C@]2(C)[C@H]3[C@@H](O)c4c(cc(-c5cccnc5)oc4=O)O[C@]3(C)[C@@H](OC(=O)c3ccc(C#N)cc3)C[C@H]21`: the Ratio IC50 in data set [1] is below 20. In data set [2], the half-life at 6 ug/ml is above 9 h.

For the molecule `Cc1ccccc1[C@@H]1OC[C@@]2(C)[C@@H]3C[C@H](OC(=O)c4ccc(F)cc4)[C@@]4(C)Oc5cc(-c6cccnc6)oc(=O)c5[C@H](O)[C@@H]4[C@@]3(C)CC[C@@H]2O1`, in data set [1], the Ratio IC50 is below 20. The molecule further showed a half-life at 6 ug/ml in data set [2] above 9 h.

Turning to `CC(=O)O[C@H]1CC[C@@]2(C)[C@@H](C[C@H](OC(=O)c3ccc(C#N)cc3)[C@@]3(C)Oc4cc(-c5cccnc5)oc(=O)c4[C@H](O)[C@H]23)[C@]1(C)COC(=O)c1ccccc1`, the Ratio IC50 in data set [1] is below 20. Also, in data set [2], the half-life at 6 ug/ml is above 9 h.

As for `CC(=O)O[C@H]1C[C@H]2[C@]3(C)CO[C@@H](c4ccccc4)O[C@H]3CC[C@]2(C)[C@H]2[C@@H](O)c3c(cc(-c4cccnc4)oc3=O)O[C@]12C`, the Ratio IC50 in data set [1] is below 20. Moreover, the half-life at 6 ug/ml in data set [2] is above 9 h.

For the molecule `C[C@@]12CO[C@@H](c3cccc4ccccc34)O[C@H]1CC[C@@]1(C)[C@H]2C[C@H](OC(=O)c2ccc(C#N)cc2)[C@@]2(C)Oc3cc(-c4cccnc4)oc(=O)c3[C@H](O)[C@H]12`, the Ratio IC50 in data set [1] is below 20. In addition, the half-life at 6 ug/ml in data set [2] was above 9 h.

As for `C[C@@]12CO[C@@H](c3ccccc3F)O[C@H]1CC[C@@]1(C)[C@H]2C[C@H](OC(=O)c2ccc(F)cc2)[C@@]2(C)Oc3cc(-c4cccnc4)oc(=O)c3[C@H](O)[C@H]12`, the Ratio IC50 in data set [1] was below 20. The molecule also showed a half-life at 6 ug/ml in data set [2] above 9 h.

`CC(=O)O[C@H]1C[C@H]2[C@](C)(COC(=O)C(C)C)[C@@H](OC(=O)C(C)C)CC[C@]2(C)[C@H]2[C@@H](O)c3c(cc(-c4cccnc4)oc3=O)O[C@]12C`: in data set [1], the Ratio IC50 is below 20. The molecule further registered a half-life at 6 ug/ml in data set [2] above 9 h.

`Cc1ccc([C@@H]2OC[C@@]3(C)[C@@H]4C[C@H](OC(=O)c5ccc(C#N)cc5)[C@@]5(C)Oc6cc(-c7cccnc7)oc(=O)c6[C@H](O)[C@@H]5[C@@]4(C)CC[C@@H]3O2)cc1`: in data set [1], the Ratio IC50 was below 20. This molecule registered a half-life at 6 ug/ml in data set [2] above 9 h.

Take `CC(=O)OCC1(C)[C@@H](OC(C)=O)CC[C@]2(C)[C@H]3[C@@H](O)c4c(cc(-c5cccnc5)oc4=O)O[C@]3(C)[C@@H](OC(=O)c3cccc(Br)c3)C[C@@H]12` (single isomer, unassigned): the half-life at 6 ug/ml in data set [2] was below 1 h.

Take `Cc1ccc([C@@H]2OC[C@@]3(C)[C@@H]4C[C@H](OC(=O)c5ccc(F)cc5)[C@@]5(C)Oc6cc(-c7cccnc7)oc(=O)c6[C@H](O)[C@@H]5[C@@]4(C)CC[C@@H]3O2)cc1`: the Ratio IC50 in data set [1] is below 20. The molecule further yielded a half-life at 6 ug/ml in data set [2] above 9 h.

For the molecule `COc1ccccc1[C@@H]1OC[C@@]2(C)[C@@H]3C[C@H](OC(=O)c4ccc(C#N)cc4)[C@@]4(C)Oc5cc(-c6cccnc6)oc(=O)c5[C@H](O)[C@@H]4[C@@]3(C)CC[C@@H]2O1`, the Ratio IC50 in data set [1] was below 20. Moreover, the half-life at 6 ug/ml in data set [2] is above 9 h.

As to `CC(=O)OCC1(C)[C@@H](OC(C)=O)CC[C@]2(C)[C@H]3[C@@H](O)c4c(cc(-c5cccnc5)oc4=O)O[C@]3(C)[C@@H](OC(=O)c3ccccc3F)C[C@@H]12` (single isomer, unassigned), the half-life at 6 ug/ml in data set [2] is below 1 h.

With `C[C@@]12CO[C@@H](c3ccccc3)O[C@H]1CC[C@@]1(C)[C@H]2C[C@H](OC(=O)c2ccccc2)[C@@]2(C)Oc3cc(-c4cccnc4)oc(=O)c3[C@H](O)[C@H]12`, in data set [1], the Ratio IC50 was below 20. Further, in data set [2], the half-life at 6 ug/ml is above 9 h.

On to `CN(C)c1ccc([C@@H]2OC[C@@]3(C)[C@@H]4C[C@H](OC(=O)c5ccc(C#N)cc5)[C@@]5(C)Oc6cc(-c7cccnc7)oc(=O)c6[C@H](O)[C@@H]5[C@@]4(C)CC[C@@H]3O2)cc1`, for which the Ratio IC50 in data set [1] is below 20. In data set [2], this molecule returned a half-life at 6 ug/ml above 9 h.

In turn, `CC(=O)OCC1(C)[C@@H](OC(C)=O)CC[C@]2(C)[C@H]3[C@@H](O)c4c(cc(-c5cccnc5)oc4=O)O[C@]3(C)[C@@H](OC(=O)c3ccc(C)cc3)C[C@@H]12` (single isomer, unassigned) registered a half-life at 6 ug/ml in data set [2] below 1 h.

Consider `CC(=O)O[C@H]1CC[C@]2(C)[C@H]3[C@@H](O)c4c(cc(-c5cccnc5)oc4=O)O[C@]3(C)[C@@H](OC(=O)c3ccc(C#N)cc3)C[C@H]2[C@@]1(C)C(=O)O`, for which the Ratio IC50 in data set [1] was below 20. Also, in data set [2], the half-life at 6 ug/ml was above 9 h.

On to `Cc1cccc(C)c1[C@@H]1OC[C@@]2(C)[C@@H]3C[C@H](OC(=O)c4ccc(C#N)cc4)[C@@]4(C)Oc5cc(-c6cccnc6)oc(=O)c5[C@H](O)[C@@H]4[C@@]3(C)CC[C@@H]2O1`, for which, in data set [1], the Ratio IC50 was below 20. In data set [2], this molecule registered a half-life at 6 ug/ml above 9 h.

With `CC(=O)OC[C@@]1(C)[C@@H]2C[C@H](OC(=O)c3ccc(C#N)cc3)[C@@]3(C)Oc4cc(-c5cccnc5)oc(=O)c4[C@H](O)[C@@H]3[C@@]2(C)CC[C@@H]1OC(=O)C(C)C`, in data set [1], the Ratio IC50 was below 20. This molecule also gave a half-life at 6 ug/ml in data set [2] above 9 h.

In the case of `CCc1ccc(C(=O)O[C@H]2C[C@H]3C(C)(COC(C)=O)[C@@H](OC(C)=O)CC[C@]3(C)[C@H]3[C@@H](O)c4c(cc(-c5cccnc5)oc4=O)O[C@]23C)cc1` (single isomer, unassigned), the half-life at 6 ug/ml in data set [2] was below 1 h.

On to `CC(=O)OC[C@@]1(C)[C@@H]2C[C@H](OC(=O)c3ccc(C#N)cc3)[C@@]3(C)Oc4cc(-c5cccnc5)oc(=O)c4[C@H](O)[C@@H]3[C@@]2(C)CC[C@@H]1OC(=O)c1ccccc1`, for which the Ratio IC50 in data set [1] is below 20. Moreover, in data set [2], the half-life at 6 ug/ml was above 9 h.

The molecule `CC(=O)OCC1(C)[C@@H](OC(C)=O)CC[C@]2(C)[C@H]3[C@@H](O)c4c(cc(-c5cccnc5)oc4=O)O[C@]3(C)[C@@H](OC(=O)C3CCCCC3)C[C@@H]12` (single isomer, unassigned) had a half-life at 6 ug/ml in data set [2] below 1 h.

With `COc1ccc(CNC(=O)[C@@]2(C)[C@@H](OC(C)=O)CC[C@]3(C)[C@H]4[C@@H](O)c5c(cc(-c6cccnc6)oc5=O)O[C@]4(C)[C@@H](OC(=O)c4ccc(C#N)cc4)C[C@H]32)c(OC)c1`, in data set [1], the Ratio IC50 was below 20. In data set [2], the half-life at 6 ug/ml is above 9 h.

Regarding `CC(C)C(=O)OCC1(C)[C@@H](OC(=O)C(C)C)CC[C@]2(C)[C@H]3[C@@H](O)c4c(cc(-c5cccnc5)oc4=O)O[C@]3(C)[C@@H](OC(=O)c3ccc(C#N)cc3)C[C@@H]12` (single isomer, unassigned), the Ratio IC50 in data set [1] was below 1. This molecule also showed a half-life at 6 ug/ml in data set [2] above 9 h.

Regarding `CC(C)C(=O)OC[C@@]1(C)[C@@H]2C[C@H](OC(=O)c3ccc([N+](=O)[O-])cc3)[C@@]3(C)Oc4cc(-c5cccnc5)oc(=O)c4[C@H](O)[C@@H]3[C@@]2(C)CC[C@@H]1OC(=O)C(C)C`, in data set [1], the Ratio IC50 was below 20. This molecule also yielded a half-life at 6 ug/ml in data set [2] above 9 h.

Regarding `CC(=O)OCC1(C)[C@@H](OC(C)=O)CC[C@]2(C)[C@H]3[C@@H](O)c4c(cc(-c5cccnc5)oc4=O)O[C@]3(C)[C@@H](OC(=O)c3ccccc3C)C[C@@H]12` (single isomer, unassigned), the half-life at 6 ug/ml in data set [2] is below 1 h.

For `Cc1cccc([C@@H]2OC[C@@]3(C)[C@@H]4C[C@H](OC(=O)c5ccc(C#N)cc5)[C@@]5(C)Oc6cc(-c7cccnc7)oc(=O)c6[C@H](O)[C@@H]5[C@@]4(C)CC[C@@H]3O2)c1`, the Ratio IC50 in data set [1] is below 20.

By half-life is commonly meant the time in which the quantity being followed falls by half. Read a low half-life as rapid decline.

The record behind these values is ChEMBL document CHEMBL3880418, “Pyripyropene derivative having ACAT2 inhibiting activity and stable to metabolizing enzymes” (2013).
